For 20 molecules, IC50 results are on record in patent US12187758B2 (ROME Therapeutics, Inc., priority 2022, dated 2025).

Holding throughout (type): cell-based
In assay [1] the test system is SDH-A (succinate dehydrogenase-A). Description: Mitochondria toxicity assay with PC3 cells, in-cell ELISA SDH-A. As to conditions: 5 days treatment. In a few lines:
(§1)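 This in-cell ELISA was run on fixed, permeabilized PC3 cells after 5-day exposure to titrated compound, with cytotoxicity measured on a duplicate plate. Results are reported as categories A (<1.0 μM) to E (>100.0 μM).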

The test system of assay [2] is PC3 cells. Put plainly: Mitochondria toxicity assay with PC3 cells, cytotoxicity (Cell Titer Glo). As to conditions: Homo sapiens, PC-3, 120 h, 5 days treatment. In short, it runs like this:
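Cytotoxicity reported in μM bins, A <1.0 through E >100.0. Measured via Cell Titer Glo luminescence (30 min, room temperature) after 5-day dose-titration treatment of PC3 cells, grown in F-12K/10% FBS, at 37° C, 5% CO2.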
In general terms: In ATP-based viability assays light output follows the ATP content of the culture.

A short description of assay [3]: Mitochondria toxicity assay with PC3 cells, in-cell ELISA COX-1. As to conditions: 5 days treatment. In a few lines: as §1
In general terms: ELISA stands for enzyme-linked immunosorbent assay.

The subject of assay [4] is THP1-Dual KO-TREX1 cells. Description: THP1 TREX1 KO inhibition assay (type 1 interferon response). As to conditions: Homo sapiens, 144 h, type 1 interferon (QUANTI-LUC), 1 μM 5-aza-2′-deoxycytidine, six days. As for the experimental part: Exemplary compounds were tested for their ability to alter the type 1 interferon response in THP1 Dual TREX1 KG cells treated with 5-aza-2′-deoxycytidine. Assay procedures and results are described below.
THP1 Dual TREX1 KG cells were purchased from Invivogen. The THP1-Dual™ KO-TREX1 cells were cultured in RPMI 1640, 10% heat-inactivated fetal bovine serum, 25 mM HEPES, 10 μg/mL blasticidin, and 100 μg/mL zeocin. THP1-Dual™ KO-TREX1 cells were treated with a dose titration of a test compound alone or in the presence of 1 μM 5-aza-2′-deoxycytidine (Sigma-Aldrich, cat #189825). Type 1 Interferon and cell viability were assessed after six days of treatment.
Stock solution of the test compound was prepared in DMSO followed by a three-fold dilution in DMSO. Additional 50× dilution was prepared in cell culture media for each dilution. 10 μL of diluted test compound was then added to a 96-well plate.
THP1-Dual™ KO-TREX1 cells were treated with either 1×PBS or 1 μM 5-aza-2′-deoxycytidine. […] of the THP1-Dual™ KO-TREX1 cells from either treatment were added to each well of the 96-well plate containing the test compound titration at 50,000 cells/well. Cells were incubated at 37° C., 5% CO2 in a humidified incubator for six days. Cells treated with 1 μM 5-aza-2′-deoxycytidine were added at the same density as above and incubated at 37° C., 5% CO2 in a humidified incubator for six days. On day six, 25 μL of cell supernatant was transferred to a 96-well white-walled plate, followed by addition to each well of 50 μL of QUANTI-LUC solution containing stabilizer. Luminescence was detected on a plate reader according to the manufacturer's instructions.
The remaining cells were assessed for cell viability by adding 25 μL of CellTiter-Glo (Promega, G9683) solution to each well, and being placed on a shaker for 10 minutes at room temperature. Luminescence was detected on a plate reader, according to the manufacturer's instructions.
In the tables “A” represents values≤0.050 μM; “B” represents values from >0.050 μM to ≤0.100 μM; “C” represents values from >0.100 μM to ≤0.250 μM; “D” represents values from >0.250 μM to ≤1 μM; “E” represents values>1 μM; and “NT”=not tested: […]

By IC50 is commonly meant the concentration that gives 50% inhibition. Low readings indicate greater potency in that assay, high ones weaker potency in that assay. Regarding `C=C[C@]1(CO)O[C@@H](n2ccc(N)nc2=O)[C@@H](F)[C@@H]1O` [Compound 47, 4-amino-1-((2R,3S,4R,5R)-3-fluoro-4-hydroxy-5-(hydroxymethyl)-5-vinyltetrahydrofuran-2-yl)pyrimidin-2(1H)-one], the IC50 in assay [1] was 1 to 10 µM; in assay [2], 1 to 10 µM; in assay [3] it was 1 to 10 µM; in assay [4], greater than 1 µM.

For `Nc1nc(=O)n([C@@H]2O[C@](/C=C\F)(CO)[C@@H](O)[C@@H]2F)cc1F` [Compound 123, 4-amino-5-fluoro-1-((2R,3S,4R,5R)-3-fluoro-5-((Z)-2-fluorovinyl)-4-hydroxy-5-(hydroxymethyl)tetrahydrofuran-2-yl)pyrimidin-2(1H)-one], the IC50 in assay [1] is greater than 100 µM; in assay [2] it was greater than 100 µM; in assay [3], greater than 100 µM; in assay [4], greater than 1 µM.

With `C[C@]1(CO)O[C@@H](n2ccc(N)nc2=O)C[C@@H]1O` [Compound 106, 4-amino-1-((2R,4S,5R)-4-hydroxy-5-(hydroxymethyl)-5-methyltetrahydrofuran-2-yl)pyrimidin-2(1H)-one], the IC50 in assay [1] is less than 1 µM; in assay [2], less than 1 µM; in assay [3] it was less than 1 µM; in assay [4] it was 0.25 to 1 µM.

As for `CC[C@]1(CO)O[C@@H](n2cc(F)c(N)nc2=O)[C@@H](O)[C@@H]1O` [Compound 78, 4-amino-1-((2R,3S,4S,5R)-5-ethyl-3,4-dihydroxy-5-(hydroxymethyl)tetrahydrofuran-2-yl)-5-fluoropyrimidin-2(1H)-one], the IC50 was greater than 100 µM in assay [1], greater than 100 µM in assay [2], greater than 100 µM in assay [3] and greater than 1 µM in assay [4].

For the molecule `Nc1ccn([C@@H]2O[C@@](CO)(CCl)[C@@H](O)[C@@H]2O)c(=O)n1` [Compound 114, 4-amino-1-((2R,3S,4S,5R)-5-(chloromethyl)-3,4-dihydroxy-5-(hydroxymethyl)tetrahydro-furan-2-yl)pyrimidin-2(1H)-one], the IC50 was greater than 100 µM in assay [1], greater than 100 µM in assay [2], greater than 100 µM in assay [3] and greater than 1 µM in assay [4].

Consider `C=CCC1(CO)O[C@@H](n2ccc(N)nc2=O)C[C@@H]1O` (stereo partly drawn) [Compound 56, 1-((2R,4S)-5-allyl-4-hydroxy-5-(hydroxymethyl)tetrahydrofuran-2-yl)-4-aminopyrimidin-2(1H)-one], for which the IC50 was greater than 100 µM in assay [1], greater than 100 µM in assay [2], greater than 100 µM in assay [3] and greater than 1 µM in assay [4].

In the case of `Nc1ccn([C@@H]2O[C@@](CO)(C3CC3)[C@@H](O)[C@@H]2F)c(=O)n1` [Compound 121, 4-amino-1-[(2R,3S,4R,5R)-5-cyclopropyl-3-fluoro-4-hydroxy-5-(hydroxymethyl)oxolan-2-yl] pyrimidin-2-one], the IC50 in assay [1] is greater than 100 µM; in assay [2] it was greater than 100 µM; in assay [3], greater than 100 µM; in assay [4] it was greater than 1 µM.

For the molecule `C=C[C@]1(CO)O[C@@H](n2cnc3c(N)nc(F)nc32)[C@@H](F)[C@@H]1O` [Compound 80, (2R,3R,4S,5R)-5-(6-amino-2-fluoropurin-9-yl)-2-ethenyl-4-fluoro-2-(hydroxymethyl)oxolan-3-ol], the IC50 in assay [1] was greater than 100 µM; in assay [2], greater than 100 µM; in assay [3] it was 50 to 100 µM; in assay [4] it was greater than 1 µM.

As for `C#C[C@]1(CO)O[C@@H](c2ccc3c(N)ncnn23)C[C@@H]1O` [Compound 37, (2R,3S,5R)-5-(4-aminopyrrolo[2,1-f][1,2,4]triazin-7-yl)-2-ethyny1-2-(hydroxymethyl)tetrahydro-furan-3-ol], the IC50 in assay [1] is 1 to 10 µM; in assay [2], 10 to 50 µM; in assay [3] it was 1 to 10 µM; in assay [4] it was greater than 1 µM.

On to `C#C[C@]1(CO)O[C@@H](n2cc(F)c(N)nc2=O)[C@@H](F)[C@@H]1O` [Compound 112, 4-amino-1-((2R,3S,4R,5R)-5-ethynyl-3-fluoro-4-hydroxy-5-(hydroxymethyl)tetrahydrofuran-2-yl)-5-fluoropyrimidin-2(1H)-one], for which the IC50 is less than 1 µM in assay [1], greater than 100 µM in assay [2], less than 1 µM in assay [3] and greater than 1 µM in assay [4].

For the molecule `Nc1ccn([C@@H]2O[C@@](CO)(CF)[C@@H](O)[C@@H]2F)c(=O)n1` [Compound 113, 4-amino-1-((2R,3S,4R,5R)-3-fluoro-5-(fluoromethyl)-4-hydroxy-5-(hydroxymethyl)-tetrahydrofuran-2-yl)pyrimidin-2(1H)-one], the IC50 was less than 1 µM in assay [1], less than 1 µM in assay [2], less than 1 µM in assay [3] and greater than 1 µM in assay [4].

In the case of `Nc1nc(=O)n([C@H]2C[C@H](O)[C@](CO)(C3CC3)O2)cc1F` [Compound 120, 4-amino-1-[(2R,4S,5R)-5-cyclopropyl-4-hydroxy-5-(hydroxymethyl)oxolan-2-yl]-5-fluoropyrimidin-2-one], the IC50 is greater than 100 µM in assay [1], greater than 100 µM in assay [2], greater than 100 µM in assay [3] and greater than 1 µM in assay [4].

In the case of `C#C[C@]1(CO)O[C@@H](n2cnc3c(N)nc(F)nc32)[C@@H](F)[C@@H]1O` [Compound 42, (2R,3R,4S,5R)-5-(6-amino-2-fluoro-9H-purin-9-yl)-2-ethynyl-4-fluoro-2-(hydroxymethyl)tetrahydro-furan-3-ol], the IC50 in assay [1] was 10 to 50 µM; in assay [2] it was 50 to 100 µM; in assay [3] it was 10 to 50 µM; in assay [4], greater than 1 µM.

For `CCC[C@]1(CO)O[C@@H](n2ccc(N)nc2=O)C[C@@H]1O` [Compound 60, 4-amino-1-((2R,4S,5R)-4-hydroxy-5-(hydroxymethyl)-5-propyltetrahydrofuran-2-yl)pyrimidin-2(1H)-one], the IC50 in assay [1] was greater than 100 µM; in assay [2] it was greater than 100 µM; in assay [3], greater than 100 µM; in assay [4] it was greater than 1 µM.

As to `C=C[C@]1(COC(=O)C(C)C)O[C@@H](n2ccc(N)nc2=O)C[C@@H]1OC(=O)C(C)C` [Compound 53, [(2R,3S,5R)-5-(4-amino-2-oxopyrimidin-1-yl)-2-ethenyl-3-[(2-methylpropanoyl)oxy]oxolan-2-yl] methyl 2-methylpropanoate], the IC50 was greater than 100 µM in assay [1], greater than 100 µM in assay [2], greater than 100 µM in assay [3] and greater than 1 µM in assay [4].

Consider `Nc1ccn([C@H]2C[C@H](O)[C@](CO)(CF)O2)c(=O)n1` [Compound 45, 4-amino-1-((2R,4S,5R)-5-(fluoromethyl)-4-hydroxy-5-(hydroxymethyl)tetrahydro-furan-2-yl)pyrimidin-2(1H)-one], for which the IC50 in assay [1] is less than 1 µM; in assay [2], 1 to 10 µM; in assay [3] it was less than 1 µM; in assay [4], greater than 1 µM.

As to `C#C[C@]1(CO)O[C@@H](n2cnc3c(N)ncnc32)C[C@@H]1O` [Compound 27, (2R,3S,5R)-5-(6-amino-9H-purin-9-yl)-2-ethynyl-2-(hydroxymethyl)tetrahydrofuran-3-ol], the IC50 in assay [1] is greater than 100 µM; in assay [2], greater than 100 µM; in assay [3], greater than 100 µM; in assay [4] it was greater than 1 µM.

Consider `C=C[C@]1(CO)O[C@@H](n2cnc3c(=O)[nH]c(N)nc32)C[C@@H]1O` [Compound 69], for which the IC50 in assay [1] is 1 to 10 µM; in assay [2] it was 1 to 10 µM; in assay [3], 1 to 10 µM; in assay [4] it was greater than 1 µM.

Regarding `C=C=C[C@]1(CO)O[C@@H](n2cnc3c(N)nc(F)nc32)C[C@@H]1O` [Compound 164, (2R,3S,5R)-5-(6-amino-2-fluoropurin-9-yl)-2-(hydroxymethyl)-2-(propa-1,2-dien-1-yl) oxolan-3-ol], the IC50 in assay [1] was greater than 100 µM; in assay [2] it was greater than 100 µM; in assay [3], greater than 100 µM; in assay [4], greater than 1 µM.

Regarding `C=C[C@]1(CO)O[C@@H](n2cnc3c(N)nc(F)nc32)C[C@@H]1O` [Compound 109, (2R,3S,5R)-5-(6-amino-2-fluoro-9H-purin-9-yl)-2-(hydroxymethyl)-2-vinyltetrahydrofuran-3-ol], the IC50 in assay [1] is 1 to 10 µM; in assay [2], 1 to 10 µM; in assay [3] it was 1 to 10 µM; in assay [4], greater than 1 µM.
